Test results as given in PMC5224880, “Discovery and Molecular Basis of a Diverse Set of Polycomb Repressive Complex 2 Inhibitors Recognition by EED” (PLoS ONE, 2017).

Columns and labels:
Assay type in all cases: biochemical
CARM1 = biological target: T1, CARM1 (Homo sapiens, UniProt Q86X55); assay: HMT panel selectivity: CARM1
T1 sequence (Q86X55 1-608): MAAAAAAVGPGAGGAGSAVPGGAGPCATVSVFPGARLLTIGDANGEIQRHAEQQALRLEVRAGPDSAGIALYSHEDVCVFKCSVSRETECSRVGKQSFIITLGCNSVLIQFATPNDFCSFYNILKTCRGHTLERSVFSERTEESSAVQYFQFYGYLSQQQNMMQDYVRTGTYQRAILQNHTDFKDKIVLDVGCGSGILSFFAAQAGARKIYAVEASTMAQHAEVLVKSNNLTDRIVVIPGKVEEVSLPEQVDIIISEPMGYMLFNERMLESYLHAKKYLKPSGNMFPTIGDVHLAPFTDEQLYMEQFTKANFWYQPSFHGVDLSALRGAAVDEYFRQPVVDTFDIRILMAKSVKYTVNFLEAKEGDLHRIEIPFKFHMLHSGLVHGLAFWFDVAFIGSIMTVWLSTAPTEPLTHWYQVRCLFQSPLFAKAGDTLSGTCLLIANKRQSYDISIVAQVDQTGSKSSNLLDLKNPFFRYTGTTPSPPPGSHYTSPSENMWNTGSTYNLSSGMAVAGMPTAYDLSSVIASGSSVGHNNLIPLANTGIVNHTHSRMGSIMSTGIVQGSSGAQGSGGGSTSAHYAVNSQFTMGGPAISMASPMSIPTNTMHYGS
Method: (§1) Note: for EZH2, EZH2/EED/SUZ12/RBAP48/AEBP2 was used in the assay; for EZH1, EZH1/EED/SUZ12/RBAP48/AEBP2 was used in the assay; for MLL, MLL/WDR5/RBBP5/ASH2L/ was use in the assay. a, H3K27me0 peptide was used as substrate for both EZH2 and EZH1 activity; b, H3K27me1 peptide was used as substrate for both EZH2 and EZH1 activity. All HMT reactions were performed as described previously. ref: Proc Natl Acad Sci U S A. 2012 Dec 26;109(52):21360-5.

Set7/9 = biological target: T2, Set7/9 (Homo sapiens, UniProt Q8WTS6); assay: HMT panel selectivity: Set7/9
T2 sequence (Q8WTS6 1-366): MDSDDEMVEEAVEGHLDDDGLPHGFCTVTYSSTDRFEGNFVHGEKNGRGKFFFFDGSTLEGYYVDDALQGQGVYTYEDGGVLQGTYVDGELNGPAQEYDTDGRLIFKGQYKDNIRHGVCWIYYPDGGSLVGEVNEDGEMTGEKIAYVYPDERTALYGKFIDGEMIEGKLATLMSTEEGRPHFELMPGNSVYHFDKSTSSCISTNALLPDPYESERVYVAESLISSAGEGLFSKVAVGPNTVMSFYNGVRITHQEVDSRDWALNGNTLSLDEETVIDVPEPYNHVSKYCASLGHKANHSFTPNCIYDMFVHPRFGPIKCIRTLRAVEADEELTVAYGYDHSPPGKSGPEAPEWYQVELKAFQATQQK
Method: as §1

SMYD2 = SMYD2 (Homo sapiens, UniProt Q9NRG4); assay: HMT panel selectivity: SMYD2
Sequence of SMYD2 (Q9NRG4 whole entry, species assumed): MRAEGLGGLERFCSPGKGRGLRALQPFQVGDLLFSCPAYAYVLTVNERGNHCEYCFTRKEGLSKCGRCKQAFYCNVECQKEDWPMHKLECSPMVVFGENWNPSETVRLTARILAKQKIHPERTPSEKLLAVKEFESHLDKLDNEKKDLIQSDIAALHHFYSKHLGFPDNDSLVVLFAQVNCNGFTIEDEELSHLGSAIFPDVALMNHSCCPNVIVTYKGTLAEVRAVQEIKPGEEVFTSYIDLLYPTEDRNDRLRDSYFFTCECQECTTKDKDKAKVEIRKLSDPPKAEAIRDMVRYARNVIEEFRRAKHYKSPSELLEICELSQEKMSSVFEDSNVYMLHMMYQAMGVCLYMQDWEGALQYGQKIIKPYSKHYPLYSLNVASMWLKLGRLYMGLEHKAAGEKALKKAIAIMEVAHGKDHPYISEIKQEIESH
Method: as §1

SMYD3 = biological target: T3, SMYD3 (Homo sapiens, UniProt Q9H7B4); assay: HMT panel selectivity: SMYD3
T3 sequence (Q9H7B4 1-428): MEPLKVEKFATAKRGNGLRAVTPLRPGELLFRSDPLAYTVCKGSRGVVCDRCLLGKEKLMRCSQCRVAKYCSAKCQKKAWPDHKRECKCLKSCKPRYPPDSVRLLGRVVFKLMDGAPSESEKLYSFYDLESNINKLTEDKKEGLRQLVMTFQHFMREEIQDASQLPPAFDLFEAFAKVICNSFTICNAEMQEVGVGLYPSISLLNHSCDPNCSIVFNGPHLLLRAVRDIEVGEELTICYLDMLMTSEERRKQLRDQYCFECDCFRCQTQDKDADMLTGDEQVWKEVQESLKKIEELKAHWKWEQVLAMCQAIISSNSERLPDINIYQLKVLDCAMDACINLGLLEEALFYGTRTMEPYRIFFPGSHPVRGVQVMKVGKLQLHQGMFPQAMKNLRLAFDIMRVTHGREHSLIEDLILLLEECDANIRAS
Method: as §1

PRMT3 = PRMT3 (Homo sapiens, UniProt O60678); assay: HMT panel selectivity: PRMT3
Sequence of PRMT3 (O60678 whole entry, species assumed): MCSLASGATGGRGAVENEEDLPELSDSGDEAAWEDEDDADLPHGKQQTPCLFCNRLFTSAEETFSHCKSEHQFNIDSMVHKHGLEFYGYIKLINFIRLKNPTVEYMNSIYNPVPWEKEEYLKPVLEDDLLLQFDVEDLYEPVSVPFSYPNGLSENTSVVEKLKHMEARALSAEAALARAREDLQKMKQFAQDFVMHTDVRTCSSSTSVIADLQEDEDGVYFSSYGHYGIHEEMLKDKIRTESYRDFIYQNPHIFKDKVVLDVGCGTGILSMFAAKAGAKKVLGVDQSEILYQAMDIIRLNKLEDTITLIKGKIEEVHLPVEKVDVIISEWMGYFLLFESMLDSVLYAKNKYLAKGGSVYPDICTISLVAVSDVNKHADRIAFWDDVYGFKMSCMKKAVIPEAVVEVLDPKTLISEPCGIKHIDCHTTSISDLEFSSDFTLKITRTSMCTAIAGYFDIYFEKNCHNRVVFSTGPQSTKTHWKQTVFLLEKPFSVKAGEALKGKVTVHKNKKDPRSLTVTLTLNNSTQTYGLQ
Method: as §1

SETD2 = SETD2 (Homo sapiens, UniProt Q9BYW2); assay: HMT panel selectivity: SETD2
Method: as §1

SETD6 = biological target: T4, SETD6 (Homo sapiens, UniProt Q8TBK2); assay: HMT panel selectivity: SETD6
T4 sequence (Q8TBK2 1-473): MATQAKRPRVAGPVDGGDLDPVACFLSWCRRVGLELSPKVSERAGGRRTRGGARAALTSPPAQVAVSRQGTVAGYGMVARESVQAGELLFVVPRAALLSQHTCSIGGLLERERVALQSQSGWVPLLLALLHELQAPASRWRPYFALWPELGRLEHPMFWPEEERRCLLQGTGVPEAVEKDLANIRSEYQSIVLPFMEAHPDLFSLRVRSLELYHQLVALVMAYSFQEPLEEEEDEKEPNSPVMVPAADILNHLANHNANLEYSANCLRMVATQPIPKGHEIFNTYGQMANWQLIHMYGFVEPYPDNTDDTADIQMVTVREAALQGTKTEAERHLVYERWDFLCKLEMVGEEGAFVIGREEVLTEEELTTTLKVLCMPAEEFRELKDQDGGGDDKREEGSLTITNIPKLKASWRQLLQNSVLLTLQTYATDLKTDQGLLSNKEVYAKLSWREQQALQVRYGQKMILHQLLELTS
Method: as §1

Suv39H2 = Suv39H2 (Homo sapiens, UniProt Q9H5I1); assay: HMT panel selectivity: Suv39H2
Sequence of Suv39H2 (Q9H5I1 whole entry, species assumed): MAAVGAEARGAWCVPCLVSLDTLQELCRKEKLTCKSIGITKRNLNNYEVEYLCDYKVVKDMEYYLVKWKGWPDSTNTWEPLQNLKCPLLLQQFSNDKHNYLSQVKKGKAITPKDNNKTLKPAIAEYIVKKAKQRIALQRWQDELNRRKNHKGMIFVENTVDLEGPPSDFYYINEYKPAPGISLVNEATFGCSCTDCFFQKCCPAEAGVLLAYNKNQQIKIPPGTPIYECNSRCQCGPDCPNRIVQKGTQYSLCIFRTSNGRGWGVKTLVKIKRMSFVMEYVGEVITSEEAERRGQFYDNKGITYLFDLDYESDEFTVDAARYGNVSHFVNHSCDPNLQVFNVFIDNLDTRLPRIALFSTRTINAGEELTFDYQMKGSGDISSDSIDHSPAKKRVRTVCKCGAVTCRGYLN
Method: as §1

ESET = ESET (Homo sapiens, UniProt Q15047); assay: HMT panel selectivity: ESET
Method: as §1

PRMT8 = PRMT8 (Homo sapiens, UniProt Q9NR22); assay: HMT panel selectivity: PRMT8
Sequence of PRMT8 (Q9NR22 whole entry, species assumed): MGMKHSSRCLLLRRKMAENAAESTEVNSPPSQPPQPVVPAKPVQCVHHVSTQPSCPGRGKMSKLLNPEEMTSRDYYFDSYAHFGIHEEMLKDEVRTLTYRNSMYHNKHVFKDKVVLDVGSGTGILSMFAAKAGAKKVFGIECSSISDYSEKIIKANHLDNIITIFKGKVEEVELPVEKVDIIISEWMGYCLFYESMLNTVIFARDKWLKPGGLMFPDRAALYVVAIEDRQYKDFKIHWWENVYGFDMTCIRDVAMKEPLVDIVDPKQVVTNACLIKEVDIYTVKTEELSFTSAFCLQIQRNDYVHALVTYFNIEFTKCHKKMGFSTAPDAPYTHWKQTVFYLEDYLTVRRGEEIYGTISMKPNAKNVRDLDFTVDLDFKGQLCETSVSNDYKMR
Method: as §1

[1] = biological target: EZH1 (EZH1/EED/SUZ12/RBAP48/AEBP2) (Homo sapiens, UniProt O75530+Q92800); assay: HMT panel selectivity: EZH1
Sequence of EZH1 (EZH1/EED/SUZ12/RBAP48/AEBP2) (Q92800 whole entry): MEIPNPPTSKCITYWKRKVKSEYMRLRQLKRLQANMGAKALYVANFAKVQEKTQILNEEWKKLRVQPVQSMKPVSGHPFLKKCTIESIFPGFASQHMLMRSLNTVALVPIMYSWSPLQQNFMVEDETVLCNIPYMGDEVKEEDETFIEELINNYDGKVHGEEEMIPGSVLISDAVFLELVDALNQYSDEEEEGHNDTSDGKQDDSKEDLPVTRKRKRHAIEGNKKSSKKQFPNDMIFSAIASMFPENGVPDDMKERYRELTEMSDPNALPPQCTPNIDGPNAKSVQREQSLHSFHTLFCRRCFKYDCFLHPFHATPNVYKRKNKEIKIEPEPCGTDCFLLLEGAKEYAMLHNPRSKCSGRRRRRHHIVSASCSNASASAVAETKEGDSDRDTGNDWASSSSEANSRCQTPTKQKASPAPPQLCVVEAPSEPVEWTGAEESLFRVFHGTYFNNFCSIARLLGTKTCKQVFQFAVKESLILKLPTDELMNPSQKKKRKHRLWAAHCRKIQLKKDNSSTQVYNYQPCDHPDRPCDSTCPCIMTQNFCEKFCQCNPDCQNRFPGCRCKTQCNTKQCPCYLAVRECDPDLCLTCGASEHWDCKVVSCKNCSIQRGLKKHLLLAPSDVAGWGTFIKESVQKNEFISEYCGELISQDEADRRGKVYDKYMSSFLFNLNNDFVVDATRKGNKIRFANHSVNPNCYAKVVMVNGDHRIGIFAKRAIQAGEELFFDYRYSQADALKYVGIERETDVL
Sequence of EZH1 (EZH1/EED/SUZ12/RBAP48/AEBP2) (O75530 whole entry): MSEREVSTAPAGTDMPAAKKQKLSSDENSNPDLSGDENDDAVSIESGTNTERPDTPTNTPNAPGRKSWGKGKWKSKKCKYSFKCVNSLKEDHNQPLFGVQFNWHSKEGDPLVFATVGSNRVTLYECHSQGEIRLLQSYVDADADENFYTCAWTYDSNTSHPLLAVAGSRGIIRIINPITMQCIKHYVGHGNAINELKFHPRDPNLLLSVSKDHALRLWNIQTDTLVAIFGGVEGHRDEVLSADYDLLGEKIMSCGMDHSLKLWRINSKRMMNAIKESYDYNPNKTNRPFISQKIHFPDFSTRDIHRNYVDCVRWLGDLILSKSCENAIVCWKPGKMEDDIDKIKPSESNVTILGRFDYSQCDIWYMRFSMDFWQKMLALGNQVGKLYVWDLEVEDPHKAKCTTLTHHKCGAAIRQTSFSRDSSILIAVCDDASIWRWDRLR
Sequence of EZH1 (EZH1/EED/SUZ12/RBAP48/AEBP2) (Q15022 whole entry partner): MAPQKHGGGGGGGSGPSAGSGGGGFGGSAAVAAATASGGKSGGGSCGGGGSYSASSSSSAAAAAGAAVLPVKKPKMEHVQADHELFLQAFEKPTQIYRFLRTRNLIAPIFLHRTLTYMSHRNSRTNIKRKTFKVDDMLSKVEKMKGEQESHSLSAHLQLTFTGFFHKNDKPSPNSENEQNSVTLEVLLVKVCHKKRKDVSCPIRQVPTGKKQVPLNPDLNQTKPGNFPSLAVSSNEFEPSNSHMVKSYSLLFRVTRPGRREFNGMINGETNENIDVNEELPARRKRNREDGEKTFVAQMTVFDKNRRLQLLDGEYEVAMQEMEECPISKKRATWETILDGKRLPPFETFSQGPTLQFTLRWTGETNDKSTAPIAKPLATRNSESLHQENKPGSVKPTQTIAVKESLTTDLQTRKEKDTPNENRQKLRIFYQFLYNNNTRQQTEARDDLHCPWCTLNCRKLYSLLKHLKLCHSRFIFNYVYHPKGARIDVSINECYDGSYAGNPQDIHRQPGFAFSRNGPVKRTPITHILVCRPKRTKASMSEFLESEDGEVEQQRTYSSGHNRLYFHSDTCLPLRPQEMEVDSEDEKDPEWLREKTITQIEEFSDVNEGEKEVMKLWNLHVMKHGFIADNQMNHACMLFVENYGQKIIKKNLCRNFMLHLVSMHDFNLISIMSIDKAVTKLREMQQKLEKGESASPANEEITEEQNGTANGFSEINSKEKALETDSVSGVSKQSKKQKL
Sequence of EZH1 (EZH1/EED/SUZ12/RBAP48/AEBP2) (Q09028 whole entry partner): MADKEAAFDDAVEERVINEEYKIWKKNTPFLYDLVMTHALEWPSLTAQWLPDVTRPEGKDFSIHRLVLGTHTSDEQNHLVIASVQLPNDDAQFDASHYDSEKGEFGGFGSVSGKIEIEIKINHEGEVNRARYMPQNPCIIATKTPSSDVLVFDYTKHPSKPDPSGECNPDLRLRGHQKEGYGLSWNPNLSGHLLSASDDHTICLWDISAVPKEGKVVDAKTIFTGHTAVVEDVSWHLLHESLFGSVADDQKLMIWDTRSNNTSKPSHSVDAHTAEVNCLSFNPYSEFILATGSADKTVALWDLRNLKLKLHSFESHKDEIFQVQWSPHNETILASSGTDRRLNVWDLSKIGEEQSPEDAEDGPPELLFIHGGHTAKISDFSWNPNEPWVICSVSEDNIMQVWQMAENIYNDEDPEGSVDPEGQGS
Sequence of EZH1 (EZH1/EED/SUZ12/RBAP48/AEBP2) (Q6ZN18 whole entry partner): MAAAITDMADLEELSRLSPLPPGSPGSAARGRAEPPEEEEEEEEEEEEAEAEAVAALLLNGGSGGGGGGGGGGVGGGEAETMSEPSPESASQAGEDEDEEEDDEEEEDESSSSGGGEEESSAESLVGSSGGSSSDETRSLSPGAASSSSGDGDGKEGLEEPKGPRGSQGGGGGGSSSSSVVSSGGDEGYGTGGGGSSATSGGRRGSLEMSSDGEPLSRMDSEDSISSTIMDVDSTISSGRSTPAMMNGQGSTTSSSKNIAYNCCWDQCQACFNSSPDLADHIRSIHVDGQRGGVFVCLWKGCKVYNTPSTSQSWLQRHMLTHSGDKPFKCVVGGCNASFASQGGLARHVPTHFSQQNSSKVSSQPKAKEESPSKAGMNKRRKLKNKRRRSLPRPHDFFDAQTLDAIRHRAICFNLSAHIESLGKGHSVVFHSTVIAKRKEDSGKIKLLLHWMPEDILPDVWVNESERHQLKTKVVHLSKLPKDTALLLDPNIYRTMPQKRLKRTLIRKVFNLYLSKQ
Source text: as §1, with “activity.” for “activity. All HMT reactions were performed as described previously. ref: Proc Natl Acad Sci U S A. 2012 Dec 26;109(52):21360-5.”

NSD1 = NSD1 (Homo sapiens, UniProt Q96L73); assay: HMT panel selectivity: NSD1
Method: as §1

[2] = biological target: MLL (MLL/WDR5/RBBP5/ASH2L) (Homo sapiens, UniProt Q03164); assay: HMT panel selectivity: MLL
Method: as §1

SMILES	IC50 (CARM1)	IC50 (Set7/9)	IC50 (SMYD2)	IC50 (SMYD3)	IC50 (PRMT3)	IC50 (SETD2)	IC50 (SETD6)	IC50 (Suv39H2)	IC50 (ESET)	IC50 (PRMT8)	IC50 [1]	IC50 (NSD1)	IC50 [2]
COc1ccccc1CN1CC(c2cn(C)c3ccccc23)C(N(C)C)C1 (stereo not drawn) [EED709]	> 100 µM	> 100 µM	> 100 µM	> 100 µM	> 100 µM	> 100 µM	> 100 µM	> 100 µM	> 100 µM	> 100 µM		> 100 µM	> 100 µM
N#Cc1c2c(c3nncn3c1NCc1ccco1)CN(Cc1ccccc1)CC2 [EED162]	> 100 µM	> 100 µM	> 100 µM	> 100 µM	> 100 µM	> 100 µM	> 100 µM	> 100 µM	> 100 µM	> 100 µM	5.1 µM	> 100 µM	> 100 µM
COc1cccc(CC2CC3Cc4c(cccc4OC)CC3N(C)C2)c1 (stereo not drawn) [EED210]	> 100 µM	> 100 µM	> 100 µM	> 100 µM	> 100 µM	> 100 µM	> 100 µM	> 100 µM	> 100 µM	> 100 µM		> 100 µM	> 100 µM

The remaining lines, values ahead:

IC50 (CARM1)	IC50 (Set7/9)	IC50 (SMYD2)	IC50 (SMYD3)	IC50 (PRMT3)	IC50 (SETD2)	IC50 (SETD6)	IC50 (Suv39H2)	IC50 (ESET)	IC50 (PRMT8)	IC50 [1]	IC50 (NSD1)	IC50 [2]	SMILES
> 100 µM	> 100 µM	> 100 µM	> 100 µM	> 100 µM	> 100 µM	> 100 µM	> 100 µM	> 100 µM	> 100 µM	70 µM	> 100 µM	> 100 µM	COc1cc(-c2cc3n(c(=N)c2C#N)CCc2cc4c(cc2-3)OCO4)ccc1OC(C)C [EED396]
> 100 µM	> 100 µM	> 100 µM	> 100 µM	> 100 µM	> 100 µM	> 100 µM	> 100 µM	> 100 µM	> 100 µM	66 µM	> 100 µM	> 100 µM	Cc1cc(C)n(-c2cc(N3CCc4ccccc4C3)ccc2[N+](=O)[O-])n1 [EED666]
